Test results reported in ChEMBL document CHEMBL5550176, “Destruxin E backbone modification effects on osteoclast Morphology: Synthesis and SAR study of N-Desmethyl and N-Methyl analogs” (2024).
Numbered stars: 1 amine (or outer) side, 2 acyl side, 3 side chain; on linkers, the order of the positions; unused ones are H or OH. Square brackets hold non-standard residues; d marks the D form. Peptide text beside a SMILES is read from it. X1 = O=C([C@@H](C[C@H]1CO1)O[*:1])[*:2]; NMeI = CC[C@H](C)[C@H](NC)C(=O)O; NMeβAla = CN(CCC(=O)[*:2])[*:1]; NMeV = CN[C@H](C(=O)O)C(C)C; NMeA = CN[C@@H](C)C(=O)O; βAla = NCCC(=O)O

system: Osteoclast; assay: Induction of morphological changes in mouse Osteoclast cells incubated for 24 hrs by TRAP staining based fluorescence microscopy analysis; format: functional

Row | Compound | Activity
1 | CC[C@H](C)[C@H]1C(=O)N(C)[C@@H](C(C)C)C(=O)N(C)[C@@H](C)C(=O)NCCC(=O)O[C@H](C[C@H]2CO2)C(=O)N2CCC[C@H]2C(=O)N1C (cyclo([NMeA][βAla][X1]P[NMeI][NMeV])) | 12.5 µM
2 | CC[C@H](C)[C@@H]1NC(=O)[C@@H]2CCCN2C(=O)[C@@H](C[C@H]2CO2)OC(=O)CCN(C)C(=O)[C@H](C)N(C)C(=O)[C@H](C(C)C)N(C)C1=O (cyclo(I[NMeV][NMeA][NMeβAla][X1]P)) | 50 µM
3 | CC[C@H](C)[C@@H]1NC(=O)[C@@H]2CCCN2C(=O)[C@@H](C[C@H]2CO2)OC(=O)CCNC(=O)[C@H](C)N(C)C(=O)[C@H](C(C)C)NC1=O (cyclo(IV[NMeA][βAla][X1]P)) | 1.6 µM
4 | CC[C@H](C)[C@@H]1NC(=O)[C@@H]2CCCN2C(=O)[C@@H](C[C@H]2CO2)OC(=O)CCNC(=O)[C@H](C)NC(=O)[C@H](C(C)C)N(C)C1=O (cyclo(A[βAla][X1]PI[NMeV])) | >50 µM
